From patent US20140179655A1, “SOLID ORAL DOSAGE FORM OF TE[…]” (Solural Pharma ApS, priority 2012, published 2014)

Legend:
[1] = Estimate of maximal amount of lymphatic absorbed TU; settings: 25% of solubility x 120 mg/g x 3.5 g triglyceride/10 h; formulation of 600 mg fat
Text: The maximal amount of lymphatic absorbed TU can be estimated from the solubility of Testosterone Undecanoate in triglyceride and the transported triglyceride (Int. J. Pharm., vol. 34, 175-178, 1986).

[2] = cited from earlier work

**Q.** Which “maximal amount of lymphatic absorbed TU” value [1] does the source give for `CCCCCCCCCCC(=O)O[C@H]1CC[C@H]2[C@@H]3CCC4=CC(=O)CC[C@]4(C)[C@H]3CC[C@]12C` [Testosterone Undecanoate] here?
**A.** The value was about 100 mg.

**Q.** And the solubility in triglyceride [2]?
**A.** The solubility in triglyceride was 120 mg/g.
